Reference: PubChem BioAssay (NCI)
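Method: 48-hour compound exposure of cells in 96-well plates, five concentrations, linear interpolation of endpoints. Definition used: TGI = concentration required for complete inhibition of growth.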

Assays:
Experiment in all cases: growth of human tumour cells (NCI), 48 h
HCT-116 colon = tested on: HCT-116 colon
IGROV1 ovarian = tested on: IGROV1 ovarian
K-562 leukemia = tested on: K-562 leukemia
M14 melanoma = tested on: M14 melanoma
NCI-H23 lung = tested on: NCI-H23 lung
OVCAR-8 ovarian = tested on: OVCAR-8 ovarian
PC-3 prostate = tested on: PC-3 prostate
SF-268 CNS = tested on: SF-268 CNS
A498 renal = tested on: A498 renal
SNB-75 CNS = tested on: SNB-75 CNS

Row | SMILES | TGI (HCT-116 colon) [µM] | TGI (IGROV1 ovarian) [µM] | TGI (K-562 leukemia) [µM] | TGI (M14 melanoma) [µM] | TGI (NCI-H23 lung) [µM] | TGI (OVCAR-8 ovarian) [µM] | TGI (PC-3 prostate) [µM] | TGI (SF-268 CNS) [µM] | TGI (A498 renal) [µM] | TGI (SNB-75 CNS) [µM]
1 | C=CCNC(=S)/N=C/C(C(=O)Nc1ccccc1C)=C(\C)O | > 100 | > 100 | > 100 | > 100 | > 100 | > 100 | > 100 | > 100 |  | 
2 | CN1CCC2(CC1)C(=NC1CCCCC1)NC(=O)N2c1ccccc1 | > 100 | > 100 |  | > 100 | > 100 | > 100 |  | > 100 | > 100 | > 100
3 | CC1(C)CC(=O)C2=C(C1)OC1(CC2c2ccc(Cl)cc2)CC(c2ccc(Cl)cc2)C2=C(CC(C)(C)CC2=O)O1 (configuration not stated) | > 48.9 | 33.4 | > 51.3 | > 52.1 | 34.9 | 87.5 | > 65.9 | 42 | 31 | 37.1
4 | CCOC(=O)C(C(=O)COC(C)(C)C)[C@@H]1C=C[C@H](OC(C)=O)C1 (some centres not stated) | > 100 |  | > 100 | > 100 | > 100 |  | > 100 | > 100 | > 100 | > 100
5 | CN(C)CCNC(=O)c1c(O)ccc2c1c1c(n2CCc2ccccc2)C(=O)c2ccccc2C1=O | 10.5 | 21.8 | 6.07 | 3.47 | 28.8 | 23.4 | 29.1 | 15 | 31.9 | 28.1
6 | CC(C)C(NC(=O)C(Cc1ccccc1)NC(=O)[C@H]1CCC[C@H]1NC(=O)C(Cc1ccc(OC(C)(C)C)cc1)NC(=O)OC(C)(C)C)C(N)=O (some centres not stated) | 32.1 | > 100 | 44.4 | 33.6 | 35.7 | 34.9 | 54 | 70 | 27.6 | 29.2
7 | O=C1C=C(N2CCN(CCOCCO)CC2)C(=O)c2c(O)ccc(O)c21 | 7.44 | 9.9 | > 44.6 | 3.1 | 4.67 | 17.9 | 10.7 | 37.1 | 27.8 | 30.6
8 | COc1ccc(-n2cnc3c(NC(Cc4ccccc4)C(=O)O)ncnc32)cc1 (configuration not stated) | > 100 | > 100 | > 100 | > 100 | > 100 | > 100 | > 100 | > 100 | > 100 | > 100
9 | C=CC[C@H](N=C(SC)SC)C(=O)N1C(=O)N(C)[C@@H](C)[C@H]1c1ccccc1 | > 100 |  | > 100 | > 100 | > 100 | > 100 | > 100 | > 100 | > 100 | > 100
10 | Cc1cc2ccc(N)nc2[nH]c1=O | > 100 | > 100 |  | > 100 | > 100 | > 100 | > 100 | > 100 |  | > 100
11 | COc1ccc2c(c1)CCC/C2=N\NS(=O)(=O)c1c(C)cc(C)cc1C | 35.6 | 55 | 41.6 | > 100 | 72.4 | 85.3 | > 100 |  | 77 | 58.9
12 | O=C(Cc1ccccc1)NN1C(=O)/C(=C\c2ccccc2O)SC1=Nc1ccccc1 | > 100 | > 100 |  | > 100 | > 100 | > 100 |  | > 100 | > 100 | > 100
13 | CN(C)CN(C)c1nc(N(C)C)nc(N(C)CN(C)C)n1 | > 100 | > 100 | 67.3 | > 100 | 95.8 | > 100 |  | > 100 | > 100 | > 100
14 | Cc1ccc(/C=C2\N=C(N3CCCC(CO)C3)NC2=O)cc1 (configuration not stated) | > 100 | > 100 | > 100 | > 100 | > 100 | > 100 | > 100 | > 100 |  | > 100
15 | O=C1CC(c2ccccc2)S(=O)c2ccccc2N1 (configuration not stated) | > 100 | > 100 | > 100 | > 100 | > 100 | > 100 | > 100 | > 100 |  | > 100
16 | CN(C)CCCNC(=O)c1cn2c(ccc3sc4ccccc4c(=O)c32)n1 | 2.98 | 27.4 |  | 28.1 | 28.4 | 10.1 | 9.43 | 9.96 | 30.7 | 30.5
17 | CCn1c2ccccc2c2cc(Nc3cc(C)[nH]c(=O)n3)ccc21 | > 100 |  | > 100 | > 100 | > 100 | > 100 | > 100 | > 100 | > 100 | 
18 | C(#Cc1ccccc1)SC1=C(c2ccccc2)S/C(=C(\SC#Cc2ccccc2)c2ccccc2)S1 | > 100 | > 100 | > 100 | > 100 | > 100 | > 100 | > 100 | > 100 |  | > 100
19 | COc1cc(C(C#N)NNc2nc(C)cc(=O)[nH]2)cc(OC)c1OC (configuration not stated) | > 100 | > 100 | > 100 | > 100 | > 100 | > 100 |  | > 100 |  | > 100
20 | CC(=O)Nc1ccc(-c2nnc(SCC(=O)Nc3ccc(Cl)cc3)o2)cc1 | 20.2 | 29.3 | > 100 | 34.1 | 18.2 | 74.1 |  | 20.1 | 31.7 | 39.7
21 | Cc1ccc(/C=C2/N=C(N/N=C\c3ccccc3)NC2=O)cc1 | > 100 | > 100 | > 100 | 85.7 | > 100 | > 100 | > 100 | > 100 |  | > 100
22 | CC(=O)NC1C(OCc2ccccc2)OC(CO)C(O)C1OCC(=O)N[C@@H](C)C(=O)N[C@H](CCC(=O)NCCCNc1ccc([N+](=O)[O-])c2[nH]c3ccccc3c(=O)c12)C(N)=O (some centres not stated) | > 100 | > 100 | > 100 | > 100 | > 100 | > 100 | > 100 |  | > 100 | > 100

Row | SMILES | TGI (HCT-116 colon) [µM] | TGI (IGROV1 ovarian) [µM] | TGI (K-562 leukemia) [µM] | TGI (M14 melanoma) [µM] | TGI (NCI-H23 lung) [µM] | TGI (OVCAR-8 ovarian) [µM] | TGI (PC-3 prostate) [µM] | TGI (SF-268 CNS) [µM] | TGI (A498 renal) [µM] | TGI (SNB-75 CNS) [µM]
23 | O=C(O)c1ccc(N/C(=C(/C(Cl)=C(Cl)Cl)[N+](=O)[O-])n2nnc3ccccc32)cc1 | > 100 |  | > 100 | > 100 | > 100 | > 100 | > 100 | > 100 | > 100 | 
24 | Cc1ccc(S(=O)(=O)Nn2c(O)c(C#N)c(-c3ccc([N+](=O)[O-])cc3)c(C#N)c2=O)cc1 | > 100 | > 100 | > 100 | > 100 |  | > 100 | > 100 | > 100 | > 100 | > 100
25 | Cc1c(O)c(=O)ccn1CCc1ccc(O)cc1 | > 100 |  | > 100 | 53 | > 100 | > 100 | > 100 | 33.3 |  | 
26 | O=[N+]([O-])C(C=C(n1nnc2ccccc21)n1nnc2ccccc21)=C(n1nnc2ccccc21)n1nnc2ccccc21 | > 100 | > 100 | > 100 | > 100 | > 100 | > 100 | > 100 | > 100 | > 100 | 
27 | COc1cc(/C=N/NC2=NCCN2)ccc1O | > 100 | > 100 | > 100 | > 100 | > 100 | > 100 | > 100 | > 100 |  | > 100
28 | Cc1ccc(S(=NS(=O)(=O)c2ccc(C)cc2)c2ccc(C)cc2)cc1 | > 100 |  | > 100 | > 100 | > 100 | > 100 | > 100 | > 100 |  | 
29 | NN/C(=N\S(=O)(=O)c1ccc(S(=O)(=O)c2ccccc2)s1)Nc1ccc(Cl)cc1 | 32.5 | 88.7 | > 100 | 40.1 | 80 | > 100 | > 100 |  | > 100 | 
30 | Cc1ccc(NC(=O)CC(=O)n2nc(C)c(N=Nc3cccc(C)c3)c2C)cc1 | > 100 | > 100 |  | > 100 | > 100 | > 100 | > 100 | > 100 | > 100 | 62.3
31 | COC(=O)C(NC(=O)OC(C)(C)C)P(=O)(OC)OC (configuration not stated) | > 100 | > 100 | > 100 | > 100 | > 100 | > 100 | > 100 | > 100 | > 100 | 
32 | O=C(Nc1ccc(Cl)cc1)c1cc(S(=O)(=O)Nc2n[nH]c(=O)n2-c2ccccc2)c(S)cc1Cl | > 100 | > 100 |  | > 100 | > 100 | > 100 |  | > 100 | > 100 | 
33 | O=[N+]([O-])/C(C(Cl)=C(Cl)Cl)=C(/Nc1ccccc1)Sc1ccccc1 | 38.4 | 48.1 | 41.6 | 36.5 | 36.2 | 33.6 | 34.9 | 28.2 | 38.3 | 
34 | Cc1ccc(S[C@@H](C)[C@@](O)(C(N)=O)c2ccccc2)cc1 | > 100 | 15.5 | 44.5 | > 100 | > 100 | > 100 | > 100 | > 100 |  | > 100
35 | CC(C)=NOC(=O)Nc1cccc2c1OCO2 | > 100 | > 100 |  | > 100 | > 100 | > 100 | > 100 | > 100 | > 100 | > 100
36 | CC(=O)OCC1OC(n2c(-c3ccccc3)c(N=Nc3ccc(C)cc3)c(C)c(C#N)c2=S)C(OC(C)=O)C(OC(C)=O)C1OC(C)=O (configuration not stated) | 15.4 |  | > 100 | 16.8 | 42.1 |  |  | 76.6 | 18.4 | 
37 | N#Cc1nc(/C=C/c2cccnc2)oc1N | > 100 | > 100 | > 100 | > 100 | > 100 |  | > 100 | > 100 | > 100 | > 100
38 | CCCCC[C@H]1CCCCCCCCCC(=O)OC2C(O[C@@H]3OC(C)[C@H](OC(=O)[C@@H](C)CC)C(O[C@@H]4OC(C)[C@H](O)C(O)[C@@H]4O)[C@@H]3OC(=O)[C@H](C)CC)[C@H](OC3C(O)[C@@H](O)C(C)O[C@H]3O1)OC(CO)[C@H]2O (some centres not stated) | 29.7 | 31.8 | 32.9 | 32.3 | 34 | 35.5 | 29.8 | 33.4 |  | 
39 | S=c1nc[nH]c2c1ncn2C1CCCO1 (configuration not stated) | > 100 | > 100 | > 100 | > 100 | > 100 | > 100 |  | > 100 | > 100 | > 100
40 | COC(=O)c1cc(/C=C\c2cc(OC)ccc2OC)ccc1OC | > 100 | 42.2 | 86 | 84.2 | > 100 | > 100 | > 100 | > 100 | > 100 | 
41 | COc1ccc2c([nH]c3c(O)c(-c4c(C)cc5c([nH]c6c(CC=C(C)C)c(OC)ccc65)c4O)c(C)cc32)c1CC=C(C)C | > 100 | > 100 | > 100 | > 100 | > 100 | > 100 |  | > 100 | > 100 | > 100
42 | CN(C)/C=C/C=C(/C=N/S(=O)(=O)C(F)(F)F)C1C=CN(S(=O)(=O)C(F)(F)F)C=C1 | 87.2 | > 100 | > 100 | > 100 | 56.6 | > 100 |  | > 100 | 88.8 | 50.6
43 | O=c1c2ccccc2nc(-c2ccccc2)n1NC(=S)Nc1cccc(Cl)c1 | > 100 | > 100 | > 100 | > 100 | > 100 | > 100 |  | > 100 | > 100 | 59.6
44 | COCCN1C(=O)C2c3[nH]c4ccccc4c3C3CCC(C(C)(C)C)CC3C2C1=O (configuration not stated) | 29.9 | 43.4 | > 100 | 38.1 | 57.3 | 46 | 29.1 | 37.6 |  | 35.6
